Each structure is given as a SMILES string. Where two headings read alike, the source gives them in different places. Where only a bound is given, the exact number is not on record here.

One experiment deals with T1, Mer (Homo sapiens, UniProt Q12866).
T1 construct: purchased Life Technologies
T1 sequence (Q12866 21-999): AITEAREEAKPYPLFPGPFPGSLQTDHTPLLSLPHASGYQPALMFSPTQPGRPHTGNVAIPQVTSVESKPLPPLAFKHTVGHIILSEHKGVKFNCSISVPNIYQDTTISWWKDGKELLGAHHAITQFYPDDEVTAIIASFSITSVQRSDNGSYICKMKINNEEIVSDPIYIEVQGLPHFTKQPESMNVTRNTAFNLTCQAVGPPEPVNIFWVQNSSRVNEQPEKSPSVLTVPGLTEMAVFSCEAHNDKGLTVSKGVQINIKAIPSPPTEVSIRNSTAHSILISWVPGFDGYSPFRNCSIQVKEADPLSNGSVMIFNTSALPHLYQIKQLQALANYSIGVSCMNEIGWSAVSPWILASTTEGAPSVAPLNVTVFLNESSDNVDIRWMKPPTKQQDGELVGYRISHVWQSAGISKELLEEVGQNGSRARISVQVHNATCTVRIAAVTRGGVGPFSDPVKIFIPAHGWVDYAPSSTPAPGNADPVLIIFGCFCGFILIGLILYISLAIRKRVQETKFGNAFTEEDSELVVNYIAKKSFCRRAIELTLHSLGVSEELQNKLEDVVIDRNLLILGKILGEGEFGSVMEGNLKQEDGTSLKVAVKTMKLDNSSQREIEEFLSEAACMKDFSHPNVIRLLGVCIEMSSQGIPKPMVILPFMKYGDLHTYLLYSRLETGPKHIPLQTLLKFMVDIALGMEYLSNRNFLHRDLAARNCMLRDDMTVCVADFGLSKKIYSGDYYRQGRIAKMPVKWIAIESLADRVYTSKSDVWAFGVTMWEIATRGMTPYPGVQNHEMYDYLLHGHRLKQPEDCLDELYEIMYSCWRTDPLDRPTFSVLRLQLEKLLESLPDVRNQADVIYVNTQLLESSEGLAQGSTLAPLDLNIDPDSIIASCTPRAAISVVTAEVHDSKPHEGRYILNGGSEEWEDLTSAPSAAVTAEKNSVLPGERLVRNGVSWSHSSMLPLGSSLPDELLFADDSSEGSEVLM
The experiment can be described thus: LanthaScreen Eu kinase binding assay for Mer. Conditions: read-out: Mer kinase binding activity (Kd). The procedure, abridged: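 Kd values come from control-normalized FRET loss, referenced to DMSO vehicle wells, after 1 h at room temperature. Each compound was serially diluted over eight steps in DMSO and competed against Tracer 236 (Alexa Fluor 647) for the kinase, which was tagged by a Eu anti-GST antibody.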

A further experiment concerns the target CSF1R (Homo sapiens, UniProt P07333). Kind of experiment: KINOMEscan competition binding assay for CSF1R. Set-up: DNA tag for qPCR (not a peptide); host or cells: E. coli/T7 phage or HEK-293. Conditions: @ 0.1 uM. In a few lines:
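Values are either % inhibition at 0.1 uM, relative to DMSO (100% Ctrl) and a control compound (0% Ctrl), or Kd from an 11-point 3-fold series fitted with Hill slope −1. DNA-tagged kinase binds immobilized ligand beads with compound for 1 h at room temperature, and eluted kinase is measured by qPCR.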

Setting [1] is: read-out: CSF1R kinase binding activity, Percent (%) inhibition.
Where [2] appears, read: read-out: CSF1R kinase binding activity, Range.

CSF1R, sequence (P07333 20-972): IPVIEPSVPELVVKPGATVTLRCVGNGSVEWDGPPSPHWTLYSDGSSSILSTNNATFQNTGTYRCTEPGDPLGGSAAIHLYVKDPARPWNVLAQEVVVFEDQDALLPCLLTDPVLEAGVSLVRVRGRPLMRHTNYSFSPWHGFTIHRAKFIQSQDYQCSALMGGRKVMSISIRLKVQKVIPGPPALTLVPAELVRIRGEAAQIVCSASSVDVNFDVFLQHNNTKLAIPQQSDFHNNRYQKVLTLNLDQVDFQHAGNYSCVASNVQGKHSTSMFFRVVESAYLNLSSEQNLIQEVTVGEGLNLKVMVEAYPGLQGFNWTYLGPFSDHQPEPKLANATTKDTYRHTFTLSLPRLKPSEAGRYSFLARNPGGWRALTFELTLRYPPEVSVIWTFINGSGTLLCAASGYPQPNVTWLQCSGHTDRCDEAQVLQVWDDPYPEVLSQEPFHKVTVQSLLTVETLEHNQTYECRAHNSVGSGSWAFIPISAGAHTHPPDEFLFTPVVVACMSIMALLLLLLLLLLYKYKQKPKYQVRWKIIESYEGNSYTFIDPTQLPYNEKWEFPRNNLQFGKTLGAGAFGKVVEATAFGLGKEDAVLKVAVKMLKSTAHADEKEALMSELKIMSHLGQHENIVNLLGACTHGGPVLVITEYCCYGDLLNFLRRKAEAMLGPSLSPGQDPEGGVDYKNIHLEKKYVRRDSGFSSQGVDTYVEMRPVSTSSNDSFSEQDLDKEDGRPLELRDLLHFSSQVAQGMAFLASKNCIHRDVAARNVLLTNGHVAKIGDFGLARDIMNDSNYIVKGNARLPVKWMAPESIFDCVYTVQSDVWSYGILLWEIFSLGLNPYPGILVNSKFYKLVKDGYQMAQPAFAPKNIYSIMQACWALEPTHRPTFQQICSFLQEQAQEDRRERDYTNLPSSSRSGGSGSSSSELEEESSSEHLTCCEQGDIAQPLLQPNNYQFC

Take `COc1cc2nccc(Oc3ccc(NC(=O)c4nn(CC5CC5)cc4OCC(F)(F)F)nc3)c2cc1OC` [Compound 41]: on Mer, the dissociation constant Kd (as a rule, the free concentration of one partner at which half of the binding sites on the other are occupied at equilibrium, for simple one-to-one binding) was below 100 nM. Moreover, the values for the inhibition at 0.1 µM on CSF1R (setting [1]) and on CSF1R (setting [2]) were 97% and at least 80%, respectively.
Taken in the same sequence, the figures for `COc1cc2nccc(Oc3ccc(NC(=O)c4nn(CC5CCC5)cc4OCC(F)(F)F)nc3)c2cc1OC` [Compound 42] were below 100 nM, 95% and at least 80%.
In the case of `COc1cc2nccc(Oc3ccc(NC(=O)c4nn(CC5CCCCC5)cc4OCC(F)(F)F)nc3)c2cc1OC` [Compound 43], the Kd at Mer is below 100 nM. The inhibition at 0.1 µM was 94% on CSF1R (setting [1]) and at least 80% on CSF1R (setting [2]).
`COc1cc2nccc(Oc3ccc(NC(=O)c4nn(CC5CCOC5)cc4OCC(F)(F)F)nc3)c2cc1OC` (stereo not drawn) [Compound 44]: the dissociation constant Kd on Mer was below 100 nM. Moreover, the inhibition at 0.1 µM at CSF1R (setting [1]) was 82%; at CSF1R (setting [2]), at least 80%.
Take `COc1cc2nccc(Oc3ccc(NC(=O)c4nn(C)cc4OCC(F)(F)F)c(F)c3)c2cc1OC` [Compound 45]: the dissociation constant (Kd) at Mer is below 100 nM. The inhibition at 0.1 µM on CSF1R (setting [1]) was 93%; on CSF1R (setting [2]), at least 80%.
Take `COc1cc2nccc(Oc3ccc(NC(=O)c4nn(CCO)cc4OCC(F)(F)F)c(F)c3)c2cc1OC` [Compound 46]: on Mer, the Kd was below 100 nM. Also, the inhibition at 0.1 µM is 96% at CSF1R (setting [1]) and at least 80% on CSF1R (setting [2]).
Turning to `COc1cc2nccc(Oc3ccc(NC(=O)c4nn(C5CCCC5)cc4OCC(F)(F)F)c(F)c3)c2cc1OC` [Compound 47], the Kd on Mer is below 100 nM. The inhibition at 0.1 µM on CSF1R (setting [1]) was 91%; on CSF1R (setting [2]), at least 80%.
Taken in the same sequence, the figures for `COc1cc2nccc(Oc3ccc(NC(=O)c4nn(CC(C)C)cc4OCC(F)(F)F)c(F)c3)c2cc1OC` [Compound 48] were below 100 nM, 82% and at least 80%.
As to `COCCn1cc(OCC(F)(F)F)c(C(=O)Nc2ccc(Oc3ccnc4cc(OC)c(OC)cc34)cc2F)n1` [Compound 49], the equilibrium dissociation constant (Kd) on Mer is below 100 nM. Moreover, the inhibition at 0.1 µM on CSF1R (setting [1]) is 66%; at CSF1R (setting [2]) it was 50 to 80%.
As to `COc1cc2nccc(Oc3ccc(NC(=O)c4nn(C)cc4OCC(F)(F)F)cc3F)c2cc1OC` [Compound 50], the Kd at Mer is below 100 nM. Also, the results for the inhibition at 0.1 µM at CSF1R (setting [1]) and at CSF1R (setting [2]) were 80% and 50 to 80%, respectively.
Turning to `COc1cc2nccc(Oc3ccc(NC(=O)c4nn(CCO)cc4OCC(F)(F)F)cc3F)c2cc1OC` [Compound 51], the Kd on Mer is below 100 nM. The figures for the inhibition at 0.1 µM at CSF1R (setting [1]) and at CSF1R (setting [2]) were 82% and at least 80%, respectively.
Taken in the same sequence, the figures for `COc1cc2nccc(Oc3ccc(NC(=O)c4nn(C5CCCC5)cc4OCC(F)(F)F)cc3F)c2cc1OC` [Compound 52] were below 100 nM, 71% and 50 to 80%.
In the case of `COc1cc2nccc(Oc3ccc(NC(=O)c4nn(CC(C)C)cc4OCC(F)(F)F)cc3F)c2cc1OC` [Compound 53], on Mer, the equilibrium dissociation constant (Kd) is below 100 nM. The results for the inhibition at 0.1 µM on CSF1R (setting [1]) and on CSF1R (setting [2]) were 71% and 50 to 80%, respectively.
For `COCCn1cc(OCC(F)(F)F)c(C(=O)Nc2ccc(Oc3ccnc4cc(OC)c(OC)cc34)c(F)c2)n1` [Compound 54], the dissociation constant Kd at Mer was below 100 nM. The inhibition at 0.1 µM at CSF1R (setting [1]) is 81%; at CSF1R (setting [2]), at least 80%.
In the case of `COc1cc2nccc(Oc3ccc(NC(=O)c4nn(C5CCOC5)cc4OCC(F)(F)F)cc3F)c2cc1OC` (stereo not drawn) [Compound 55], at Mer, the Kd was below 100 nM. Further, the inhibition at 0.1 µM was 60% at CSF1R (setting [1]) and 50 to 80% on CSF1R (setting [2]).
Taken in the same sequence, the figures for `COc1cc2nccc(Oc3ccc(NC(=O)c4nn(CCO)cc4OCC(F)(F)F)cc3C)c2cc1OC` [Compound 56] were below 100 nM, 0% and below 50%.
Turning to `COc1cc2nccc(Oc3ccc(NC(=O)c4nn(C5CCCC5)cc4OCC(F)(F)F)cc3C)c2cc1OC` [Compound 57], the Kd on Mer is below 100 nM. Also, the inhibition at 0.1 µM was 97% at CSF1R (setting [1]) and at least 80% on CSF1R (setting [2]).
`COc1cc2nccc(Oc3ccc(NC(=O)c4nn(CC(C)C)cc4OCC(F)(F)F)cc3C)c2cc1OC` [Compound 58]: at Mer, the Kd is below 100 nM. In addition, the results for the inhibition at 0.1 µM on CSF1R (setting [1]) and on CSF1R (setting [2]) were 76% and 50 to 80%, respectively.
With `COc1cc2nccc(Oc3ccc(NC(=O)c4nn(CCO)cc4OCC(F)(F)F)cc3)c2cc1OC` [Compound 59], the equilibrium dissociation constant (Kd) on Mer was below 100 nM. The inhibition at 0.1 µM at CSF1R (setting [1]) is 82%; on CSF1R (setting [2]) it was at least 80%.
In the case of `COc1cc2nccc(Oc3ccc(NC(=O)c4nn(C5CCCC5)cc4OCC(F)(F)F)cc3)c2cc1OC` [Compound 60], the Kd at Mer is below 100 nM. Further, the inhibition at 0.1 µM at CSF1R (setting [1]) was 75%; on CSF1R (setting [2]), 50 to 80%.
On to `COCCn1cc(OCC(F)(F)F)c(C(=O)Nc2ccc(Oc3ccnc4cc(OC)c(OC)cc34)cc2)n1` [Compound 61], for which the Kd on Mer is below 100 nM. In addition, the inhibition at 0.1 µM was 76% on CSF1R (setting [1]) and 50 to 80% on CSF1R (setting [2]).
For the compound `COc1cc2nccc(Oc3ccc(NC(=O)c4nn(C5CCOC5)cc4OCC(F)(F)F)cc3)c2cc1OC` (stereo not drawn) [Compound 62], on Mer, the Kd was below 100 nM. In addition, the inhibition at 0.1 µM was 54% on CSF1R (setting [1]) and 50 to 80% on CSF1R (setting [2]).
Taken in the same sequence, the figures for `COc1cc2nccc(Oc3ccc(NC(=O)c4nn(CC(C)N)cc4OCC(F)(F)F)nc3)c2cc1OC` (stereo not drawn) [Compound 63] were below 100 nM, 96% and at least 80%.
Regarding `COc1cc2nccc(Oc3ccc(NC(=O)c4nn(CC(C)(F)F)cc4OCC(F)(F)F)nc3)c2cc1OC` [Compound 64], at Mer, the Kd was below 100 nM. For the same compound, the results for the inhibition at 0.1 µM at CSF1R (setting [1]) and at CSF1R (setting [2]) were 95% and at least 80%, respectively.
Taken in the same sequence, the figures for `COc1cc2nccc(Oc3ccc(NC(=O)c4nn(CCOC5CCC5)cc4OCC(F)(F)F)nc3)c2cc1OC` [Compound 65] were below 100 nM, 96% and at least 80%.
Consider `COc1cc2nccc(Oc3ccc(NC(=O)c4nn(C5COC5)cc4OCC(F)(F)F)nc3)c2cc1OC` [Compound 66], for which the dissociation constant (Kd) at Mer is below 100 nM. The inhibition at 0.1 µM at CSF1R (setting [1]) is 96%; on CSF1R (setting [2]), at least 80%.
For `COc1cc2nccc(Oc3ccc(NC(=O)c4nn(CCO)cc4OCC(F)(F)F)nc3)c2cc1OC` [Compound 67], the Kd on Mer is below 100 nM. For the same compound, the values for the inhibition at 0.1 µM on CSF1R (setting [1]) and at CSF1R (setting [2]) were 96% and at least 80%, respectively.
Take `COc1cc2nccc(Oc3ccc(NC(=O)c4nn(CCCN)cc4OCC(F)(F)F)nc3)c2cc1OC` [Compound 68]: the dissociation constant (Kd) at Mer is below 100 nM. For the same compound, the figures for the inhibition at 0.1 µM at CSF1R (setting [1]) and on CSF1R (setting [2]) were 98% and at least 80%, respectively.
For the compound `COc1cc2nccc(Oc3ccc(NC(=O)c4nn(C5CCCCC5)cc4OCC(F)(F)F)nc3)c2cc1OC` [Compound 69], on Mer, the equilibrium dissociation constant (Kd) is below 100 nM. Further, the inhibition at 0.1 µM on CSF1R (setting [1]) is 89%; on CSF1R (setting [2]), at least 80%.
For `COc1cc2nccc(Oc3ccc(NC(=O)c4nn(C5CCNC5)cc4OCC(F)(F)F)nc3)c2cc1OC` (stereo not drawn) [Compound 70], the equilibrium dissociation constant (Kd) on Mer is below 100 nM. The inhibition at 0.1 µM on CSF1R (setting [1]) is 79%; on CSF1R (setting [2]) it was 50 to 80%.
